Reference: the supplement of paper PMC10307832

Legend:
Test in all cases: relative viability (nuclei count vs DMSO), 5 days (fraction); higher = more cells survive
[1] = compound: CC1CC(=O)N(C2=CN=C(N=C2N1C3CCCC3)NC4=C(C=C(C=C4)C(=O)NC5CCN(CC5)C)OC)C [NPK76-II-72-1] + COc1cc2c(Oc3ccc(NC(=O)C4(C(=O)Nc5ccc(F)cc5)CC4)cc3F)ccnc2cc1OCCCN1CCOCC1 [Foretinib] (partner 0.25 µM)
Method in brief: (§1)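 Relative viability was taken as the ratio of nuclei in treated wells to nuclei in vehicle wells. Lung cancer cell lines in 1536-well plates received compounds by pin tool one day after seeding, either one drug alone or a fixed anchor-drug dose plus five library-drug doses (not always all listed) in √10 steps. Nuclei were counted on 4× images after 5 days of treatment, and values are medians of duplicate plates.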

BI-2536 + Olaparib = compound: CC[C@@H]1C(=O)N(C)c2cnc(Nc3ccc(C(=O)NC4CCN(C)CC4)cc3OC)nc2N1C1CCCC1 [BI-2536] + O=C(c1cc(Cc2n[nH]c(=O)c3ccccc23)ccc1F)N1CCN(C(=O)C2CC2)CC1 [Olaparib] (partner 8 µM)
Method in brief: as §1

[2] = compound: CC1CC(=O)N(C2=CN=C(N=C2N1C3CCCC3)NC4=C(C=C(C=C4)C(=O)NC5CCN(CC5)C)OC)C [NPK76-II-72-1] + CS(=O)(=O)CCNCc1ccc(-c2ccc3ncnc(Nc4ccc(OCc5cccc(F)c5)c(Cl)c4)c3c2)o1 [Lapatinib] (partner 2 µM)
Method in brief: as §1

BI-2536 + Dasatinib = compound: CC[C@@H]1C(=O)N(C)c2cnc(Nc3ccc(C(=O)NC4CCN(C)CC4)cc3OC)nc2N1C1CCCC1 [BI-2536] + Cc1nc(Nc2ncc(C(=O)Nc3c(C)cccc3Cl)s2)cc(N2CCN(CCO)CC2)n1 [Dasatinib] (partner 0.075 µM)
Method in brief: as §1

## UMC-11
[1]; first compound 0.01 µM
  relative viability: 0.988
[1]; first compound 0.03162 µM
  relative viability: 1.06
[1]; first compound 0.1 µM
  relative viability: 1.06
[1]; first compound 1 µM
  relative viability: 0.95
BI-2536 + Olaparib; first compound 0.01 µM
  relative viability: 0.389
BI-2536 + Olaparib; first compound 0.03162 µM
  relative viability: 0.414
BI-2536 + Olaparib; first compound 0.1 µM
  relative viability: 0.251
BI-2536 + Olaparib; first compound 0.3162 µM
  relative viability: 0.218
BI-2536 + Olaparib; first compound 1 µM
  relative viability: 0.209
[2]; first compound 0.01 µM
  relative viability: 0.923
[2]; first compound 0.03162 µM
  relative viability: 1.07
[2]; first compound 0.1 µM
  relative viability: 1.08
[2]; first compound 0.3162 µM
  relative viability: 0.782
[2]; first compound 1 µM
  relative viability: 1.05
BI-2536 + Dasatinib; first compound 0.01 µM
  relative viability: 0.432
BI-2536 + Dasatinib; first compound 0.03162 µM
  relative viability: 0.243
BI-2536 + Dasatinib; first compound 0.1 µM
  relative viability: 0.141
BI-2536 + Dasatinib; first compound 0.3162 µM
  relative viability: 0.183
BI-2536 + Dasatinib; first compound 1 µM
  relative viability: 0.158
